Measured values reported in PubChem BioAssay (NCI).
Values joined by “and” are separate entries in the source; they are usually repeats but may differ in a detail not shown here. Identical values can stand only once.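 Where inhibition never reached the appropriate level, the endpoint shown equals the highest concentration tested. Otherwise, values were interpolated linearly from a five-concentration, 48-hour dose response in 96-well plates. At the GI50, growth is halved. TGI marks complete inhibition of growth.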 Where a SMILES comes first, the peptide text is derived from it. Side-chain parts run from the residue outwards. The star is where a group is joined. Cbz = O=C(OCc1ccccc1)*; Boc = CC(C)(C)OC(=O)*

Assays:
Assay in all cases: NCI-60 cell line screen, 48 h
[1] = tested on: ACHN renal
[2] = tested on: NCI-H226 lung
[3] = tested on: T-47D breast
[4] = tested on: HOP-92 NSCLC
[5] = tested on: HCT-116 colon
[6] = tested on: MCF7 breast
[7] = tested on: RXF 393 renal
[8] = tested on: OVCAR-5 ovarian
[9] = tested on: KM12 colon
[10] = tested on: HCT-15 colon
[11] = tested on: HL-60(TB) leukemia
[12] = tested on: MALME-3M melanoma
[13] = tested on: HT29 colon

Structure (SMILES)	TGI [1] [µM]	TGI [2] [µM]	TGI [3] [µM]	TGI [4]	TGI [5] [µM]	TGI [6] [µM]	TGI [7] [µM]	TGI [8] [µM]	TGI [9]	TGI [10] [µM]	TGI [11] [µM]	TGI [12]	TGI [13] [µM]	GI50 [2] [µM]	GI50 [5] [µM]	GI50 [7] [µM]	GI50 [4]	GI50 [1] [µM]	GI50 [13] [µM]	GI50 [11] [µM]
S=C1NC2=C(COC/C2=C\c2ccccc2Cl)C(c2ccccc2Cl)N1 (stereo unspecified)	> 100	> 100	> 100	> 100 µM	80.6	63.1	> 100	> 100	28.6 µM	> 100	34.4									
CN(C)C(=S)/N=c1\ssc(=S)n1Cc1ccccn1	> 100	> 100		64.5 µM	> 100		20	> 100	> 48 µM	> 100	> 19.8	22.7 µM	> 100							
COC(=O)C(C(=O)C(=O)Nc1ccc(C)cc1C)c1nc2ccc([N+](=O)[O-])cc2[nH]c1=O (stereo unspecified)	> 100	> 100		> 100 µM	> 100		> 100	> 100	> 100 µM	> 100	> 100	> 100 µM	> 100							
CCN(CC)CCNC(=O)c1cc2cc(NC(=O)c3cc4cc(NC(=O)c5cc6cc([N+](=O)[O-])ccc6[nH]5)ccc4[nH]3)ccc2[nH]1	> 100	> 100	> 100	> 100 µM			> 100	> 100	> 100 µM	> 100		> 100 µM	> 100							
CC(Nc1cc(=O)n(C)c(=O)[nH]1)c1ccccc1 (stereo unspecified)	> 100		> 100	> 100 µM	> 100	> 100	> 100	> 100	> 100 µM	> 100	> 100		> 100							
CCc1c(-c2coc(CC/C(C)=C/c3ccccc3)n2)oc(OC)c(C)c1=O	> 71.4	> 100		> 100 µM	> 87.8			> 100	> 100 µM	> 55.5	97.9	> 100 µM	> 31.6							
CCC(=O)n1c(=O)n(-c2ccc([N+](=O)[O-])cc2)c(=O)n1C(=O)CC	> 100	> 100	> 100		> 100	> 100	> 100	> 100	> 100 µM	> 100	> 100		> 100							
Cc1ccc(-c2nc3n(c2/C=N\N=C(N)N)CCS3)cc1	28.2		29	34 µM	28.5		29.6	30.1	28.5 µM	31.8	78.3	31.2 µM	27.3							
N=C(N)Cn1cnc2ccccc21	> 100	> 100					> 100	> 100	> 100 µM	> 100	> 100	> 100 µM								
C[n+]1c(-c2ccc(/C=N/Nc3n[nH]c(=S)n3N/N=C/c3ccc(-c4cn5ccccc5[n+]4C)cc3)cc2)cn2ccccc21	> 100		> 100		> 100	> 100		> 100	> 100 µM	> 100	> 100		> 100							
C=CC[C@@]1(C#N)C[C@H](C[C@]2(C#N)C[C@H](CCl)OC(C)(C)O2)OC(C)(C)O1	> 100	> 100		> 100 µM	> 100		> 100	> 100	> 100 µM	> 100	> 100	> 100 µM	> 100							
O=C1O[C@H](COC(=O)c2ccccc2)[C@@H](OC(=O)c2ccccc2)C=C1OC(=O)c1ccccc1	35.3	45.6	54.6	42.8 µM	32	91.3	31.4	40.9	> 100 µM	39.6	27.1									
O=c1cc(-c2ccc[nH]2)[nH]c2cc3c(cc12)OCO3	> 100	> 100			> 100		47			> 100	83.6	> 100 µM	> 100	35.3	29.4	15.9				
CN(c1ccccc1Cl)S(=O)(=O)c1ccccc1	> 100	> 100			> 100	> 100		> 100	> 100 µM	> 100	> 100	> 100 µM	> 100							
COc1ccc(-c2c(C(C)=O)c(-c3ccccc3)n(C3OC(COC(C)=O)C(OC(C)=O)C(OC(C)=O)C3OC(C)=O)c(=S)c2C#N)cc1O (stereo unspecified)	> 100			82.5 µM and > 100 µM	> 100	> 100	> 100	> 100	56.6 µM and > 100 µM	> 100	> 100	40.5 µM and 55.9 µM	> 100				43.9 µM and 17.3 µM			
[N-]=[N+]=NC(c1cn(C2CC(O)C(CO)O2)c(=O)[nH]c1=O)C(I)I (stereo unspecified)	> 100	> 100		> 100 µM	> 100		> 100	> 100	> 100 µM		> 100	> 100 µM	> 100							
CCCCCCCCCCCCCCCCCCNC(=S)/N=C/c1c(O)cc(C)oc1=O	65.4	> 100	> 100	> 100 µM	> 100	> 100		37.3	36.3 µM	62	> 100		76.8							
CC(C)CC(NC(=O)OCc1ccccc1)C(=O)NCCCCC(NC(=O)C(CCCCNC(=O)C(CC(C)C)NC(=O)OCc1ccccc1)NC(=O)C(CCCCNC(=O)C(CC(C)C)NC(=O)OCc1ccccc1)NC(=O)C(CCCCNC(=O)C(CC(C)C)NC(=O)OCc1ccccc1)NC(=O)OC(C)(C)C)C(=O)O (stereo unspecified) (Boc-K([Leu-Cbz])K([Leu-Cbz])K([Leu-Cbz])K([Leu-Cbz])-OH; configuration not given here)	> 25	> 25	> 25		> 25	> 25		> 25		> 25	> 25	> 25 µM	> 25							
CCOc1ccc(-n2c(=O)n3c(Nc4ccc(Cl)cc4)nc4c(c(=O)n(C)c(=O)n4C)n3c2=O)cc1	> 100	74.5	> 100	48.2 µM	40.2	> 100	43.2	> 100	30.9 µM	42	51.7		> 100							
Oc1cccc2nc3cc(CN4CCOCC4)c(CN4CCOCC4)cc3nc12	> 100	> 100		> 100 µM	> 100		> 100	> 100	> 100 µM	> 100	> 100	> 100 µM	> 100							
Cc1ccc(C(=O)NC(C)C)cc1N=NN(C)C	> 100			> 100 µM	> 100				> 100 µM	> 100			> 100							
CCOC(=O)CC(=Nc1cc(C)on1)N(CC)CC	> 100	> 100		> 100 µM	> 100			> 100	> 100 µM	> 100		> 100 µM	> 100							
N#CCCCCC12C3C(=O)N(c4ccccc4)C(=O)C3ON1O[C@@H]1C(=O)N(c3ccccc3)C(=O)[C@@H]12 (stereo partly specified)	> 100	> 100	> 100	> 100 µM		> 100		> 100	> 100 µM	> 100	> 100	> 100 µM	> 100							
COc1ccc2c(c1)-c1c(c3ccccc3n1CCN1CCOCC1)CC2	> 100	26.3	> 100	> 100 µM	76.8	> 100		> 100	26.7 µM	> 100		46.2 µM	25.9							
Cc1cc(C)c(N)c(C)c1N	> 100			> 100 µM	> 100		> 100	> 100	> 100 µM	> 100	> 100	> 100 µM								
O=C(/C=C\c1ccc(OCCCCCC[P+](c2ccccc2)(c2ccccc2)c2ccccc2)cc1)c1ccc2c(c1)OCCO2	3.29			2.79 µM							1.3		3.24				0.487 µM	1.79	0.912	0.326
CC[S+](C)c1ccc(-c2c3nc(c(-c4ccc([S+](C)CC)cc4)c4ccc([nH]4)c(-c4ccc([S+](C)CC)cc4)c4nc(c(-c5ccc([S+](C)CC)cc5)c5ccc2[nH]5)C=C4)C=C3)cc1 (stereo unspecified)	> 100			> 100 µM	> 100		63.3	65.8	> 100 µM	> 100	49.9	> 100 µM	> 100							
COc1ccc2c(c1)Cc1c-2[nH]c2cc3c(cc2c1=O)OCO3	30.5	94.3		48.5 µM	23.2		19.5		38.3 µM	> 100	29.2	42.8 µM	19.9							
